According to patent publication US10968232B2 (Merck Sharp & Dohme Corp., priority 2016, dated 2021):
pEC50: −log10 of the molar value.

Biological target: T1, human GPR40 (Homo sapiens, UniProt O14842)
T1 construct: expressed in transfected cells
Assay: Inositol Phosphate Turnover (IP1) Assay
Assay type: cell-based
Conditions: HEK cells stably expressing human GPR40; CisBio IP-One kit; 60 minutes at 37 degrees; read-out: Human IP1 EC50
Summary of the method: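 HEK cells stably expressing GPR40, plated 16 h, then exposed to compound in stimulation buffer for 60 min at 37 °C. IP1 accumulation read by HTRF IP-One detection after 60 min at RT.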

T1 sequence (O14842 whole entry): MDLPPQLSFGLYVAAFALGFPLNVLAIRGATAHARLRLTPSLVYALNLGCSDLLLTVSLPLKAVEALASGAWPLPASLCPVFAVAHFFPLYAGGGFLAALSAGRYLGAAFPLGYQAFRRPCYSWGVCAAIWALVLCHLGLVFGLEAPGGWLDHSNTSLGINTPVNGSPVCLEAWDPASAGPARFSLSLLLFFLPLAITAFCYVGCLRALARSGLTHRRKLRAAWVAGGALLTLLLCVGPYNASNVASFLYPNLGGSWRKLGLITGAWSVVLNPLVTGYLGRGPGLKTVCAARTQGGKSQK

Row | Compound | pEC50
1 | CC(c1cc(C2CC2)ccc1C(F)(F)F)N1CCC2(CCc3ccc([C@H](C4CC4)[C@H](C)C(=O)O)cc3O2)CC1 (single isomer, unassigned) [Example 58, (2S,3R)-3-cyclopropyl-3-(1′-((S or R)-1-(5-cyclo-propyl-2-(trifluoromethyl)-phenyl)ethyl)-spiro [chroman-2,4′-piperidin]-7-yl)-2-methylpropanoic acid] | 8.35
2 | CC(c1cc(C(F)(F)F)ccc1F)N1CCC2(CCc3ccc([C@H](C4CC4)[C@H](C)C(=O)O)cc3O2)CC1 (mixture of isomers) [Example 28, (2S,3R)-3-cyclopropyl-3-(1′-((RS)-1-(2-fluoro-5-(trifluoromethyl)phenyl)ethyl)spiro[chroman-2,4′-piperidin]-7-yl)-2-methylpropanoic acid] | 7.96
3 | CC(c1cc(-c2ccoc2)ccc1OC(F)(F)F)N1CCC2(CCc3ccc([C@H](C4CC4)[C@H](C)C(=O)O)cc3O2)CC1 (single isomer, unassigned) [Example 118, (2S,3R)-3-cyclopropyl-3-(1′-((S or R)-1-(5-(furan-3-yl)-2-(trifluoromethoxy)phenyl)ethyl)spiro[chroman-2,4′-piperidin]-7-yl)-2-methylpropanoic acid] | 8.64
4 | COc1ncc(C(F)(F)F)cc1C(C)N1CCC2(CCc3ccc([C@H](C4CC4)[C@H](C)C(=O)O)cc3O2)CC1 (single isomer, unassigned) [Example 102, (2S,3R)-3-cyclopropyl-3-(1′-((R or S)-1-(2-methoxy-5-(trifluoromethyl)pyridin-3-yl)ethyl)spiro-[chroman-2,4′-piperidin]-7-yl)-2-methylpropanoic Acid] | 6.00
5 | C[C@H](C(=O)O)[C@H](c1ccc2c(c1)OC1(CC2)CC(N(C)Cc2cc(C(F)(F)F)ccc2C(F)(F)F)C1)C1CC1 (single isomer, unassigned) [Example 98] | 8.79
6 | CC(c1cc(C(F)(F)F)ccc1C(F)(F)F)N(C)C1CC2(CCc3ccc([C@H](C4CC4)[C@H](C)C(=O)O)cc3O2)C1 (stereo partly drawn) [Example 99, (2S,3R)-3-(3′-((1-(2,5-bis(trifluoromethyl)phenyl)ethyl)(methyl)amino)spiro[chroman-2,1′-cyclobutan]-7-yl)-3-cyclopropyl-2-methylpropanoic Acid] | 8.79
7 | C[C@H](C(=O)O)[C@H](c1ccc2c(c1)OC1(CCCN([C@@H](C)c3cc(C(F)(F)F)ccc3C(F)(F)F)CC1)CC2)C1CC1 (single isomer, unassigned) [Example 51, (2S,3R)-3-((R or S)-1-((S)-1-(2,5-bis (trifluoromethyl)phenyl)ethyl)spiro[azepane-4,2′-chroman]-7′-yl)-3-cyclopropyl-2-methylpropanoic acid] | 7.85
8 | C[C@H](C(=O)O)[C@H](c1ccc2c(c1)OC1(CC2)CC(N(C)Cc2cc(C(F)(F)F)ccc2C(F)(F)F)C1)C1CC1 (single isomer, unassigned) [Example 97] | 7.79
9 | C[C@H](C(=O)O)[C@H](c1ccc2c(c1)OC1(CC2)[C@@H]2CC[C@H]1CN([C@H](C)c1cc(F)ccc1C(F)(F)F)C2)C1CC1 (stereo partly drawn) [Example 84, (2S,3R)-3-cyclopropyl-3-((1R,5S)-3-((R)-1-(5-fluoro-2-(trifluoro-methyl)phenyl)ethyl)-3-azaspiro[bicyclo[3.2.1]oc-tane-8,2′-chroman]-7′-yl)-2-methylpropanoic acid] | 7.55
10 | C[C@H](C(=O)O)[C@H](c1ccc2c(c1)OC1(CCCN([C@H](C)c3cc(C(F)(F)F)ccc3C(F)(F)F)CC1)CC2)C1CC1 (single isomer, unassigned) [Example 50, (2S,3R)-3-((S or R)-1-((R)-1-(2,5-bis (trifluoromethyl)phenyl)ethyl)spiro[azepane-4,2′-chroman]-7′-yl)-3-cyclopropyl-2-methylpropanoic acid] | 8.86
11 | CC(c1cc(Cl)cc(Cl)c1OC(F)F)N1CCC2(CCc3ccc([C@H](C4CC4)[C@H](C)C(=O)O)cc3O2)CC1 (single isomer, unassigned) [Example 80, (2S,3R)-3-cycloprop-3-(1′-((S or R)-1-(3,5-dichloro-2-(difluoro-methoxy)phenyl)-ethyl)spiro[chroman-2,4′-piperidin]-7-yl)-2-methylpropanoic acid] | 8.49
12 | Cc1ccc(OC(F)(F)F)c(C(C)N2CCC3(CCc4ccc([C@H](C5CC5)[C@H](C)C(=O)O)cc4O3)CC2)c1 (mixture of isomers) [Example 112] | 7.67
13 | C[C@H](C(=O)O)[C@H](c1ccc2c(c1)OC1(CC2)CCN(Cc2cc(C(F)(F)F)ccc2F)CC1)C1CC1 [Example 27, (2S,3R)-3-cyclopropyl-3-(1′-(2-fluoro-5-(trifluoromethyl)benzyl)spiro-[chroman-2,4′-piperidin]-7-yl)-2-methylpropanoic Acid] | 7.31
14 | C[C@H](C(=O)O)[C@H](c1ccc2c(c1F)OC1(CC2)CCN([C@H](C)c2cc(C(F)(F)F)ccc2Cl)CC1)C1CC1 (mixture of isomers) [Example 12, (2S,3R)-3-(1′-((RS)-1-(2-chloro-5-(trifluoro-methyl)phenyl)ethyl)-8-fluorospiro[chroman-2,4′-piperidin]-7-yl)-3-cyclopropyl-2-methylpropanoic acid] | 6.00
15 | C[C@H](C(=O)O)[C@H](c1ccc2c(c1)OC1(CC2)CCN(c2cc(C(F)(F)F)ccc2C(F)(F)F)CC1)C1CC1 [Example 59, (2S,3R)-3-(1′-(2,5-bis(trifluoromethyl)phenyl)spiro[chroman-2,4′-piperidin]-7-yl)-3-cyclopropyl-2-methylpropanoic Acid] | 8.48
16 | CCCn1cc(-c2ccc(OC(F)(F)F)c(C(C)N3CCC4(CCc5ccc([C@H](C6CC6)[C@H](C)C(=O)O)cc5O4)CC3)c2)cn1 (single isomer, unassigned) [Example 113, sodium (2S,3R)-3-cyclopropyl-2-methyl-3-(1′-S or R)-1-(5-(1-propyl-1H-pyrazol-4-yl)-2-(trifluoromethoxy)phenyl)eth-yl)spiro[chroman-2,4′-piperidin]-7-yl)propanoate] | 6.24
17 | CC(c1cc(-c2ccoc2)ccc1OC(F)(F)F)N1CCC2(CCc3ccc([C@H](C4CC4)[C@H](C)C(=O)O)cc3O2)CC1 (single isomer, unassigned) [Example 117, (2S,3R)-3-cyclopropyl-3-(1′-((R or S)-1-(5-(furan-3-yl)-2-(trifluoro-methoxy)-phenyl)ethyl)spiro[chroman-2,4′-piperidin]-7-yl)-2-methylpropanoic acid] | 7.43
18 | C[C@H](C(=O)O)[C@H](c1ccc2c(c1)OC1(CC2)CCN(S(=O)(=O)c2ccc(C(F)(F)F)cc2Cl)CC1)C1CC1 [Example 26, (2S,3R)-3-(1′-((2-chloro-4-(trifluoromethyl)-phenyl)sulfonyl)spiro [chroman-2,4′-piperidin]-7-yl)-3-cyclopropyl-2-methylpropanoic acid] | 7.01
19 | CC(c1nc(C(F)(F)F)ccc1Cl)N1CCC2(CCc3ccc([C@H](C4CC4)[C@H](C)C(=O)O)cc3O2)CC1 (single isomer, unassigned) [Example 30] | 7.30
20 | CC(c1cc(C(F)(F)F)ccc1C1CC1)N1CCC2(CCc3ccc([C@H](C4CC4)[C@H](C)C(=O)O)cc3O2)CC1 (single isomer, unassigned) [Example 15, sodium (2S,3R)-3-cyclo-propyl-3-(1′-((S or R)-1-(2-cyclopropyl-5-(trifluoromethyl)phenyl)ethyl)spiro[chroman-2,4′-piperidin]-7-yl)-2-methylpropanoate] | 8.23
21 | C[C@H](C(=O)O)[C@H](c1ccc2c(c1)OC1(CC2)CCN(Cc2cc(C(F)(F)F)ccc2C(F)(F)F)CC1)C1CC1 [Example 129, Sodium (2S,3R)-3-(1′-(2,5-bis(trifluoromethyl)benzyl)spiro[chromane-2,4′-piperidin]-7-yl)-3-cyclopropyl-2-methylpropanoate] | 8.42
22 | C[C@H](C(=O)O)[C@H](c1ccc2c(c1)OC1(CC2)CCN(Cc2nc(C(F)(F)F)ccc2Cl)CC1)C1CC1 [Example 32, (2S,3R)-3-(1′-((3-chloro-6-(trifluoromethyl)-pyridin-2-yl)methyl)-spiro-[chroman-2,4′-piperidin]-7-yl)-3-cyclopropyl-2-methylpropanoic acid] | 6.75
23 | C[C@H](C(=O)O)[C@H](c1ccc2c(c1)OC1(CC2)CCN([C@@H](C)c2nccnc2C(F)(F)F)CC1)C1CC1 (mixture of isomers) [Example 125, (2S,3R)-3-cyclopropyl-2-methyl-3-(1′-((RS)-1-(3-(trifluoromethyl)pyrazin-2-yl)ethyl)spiro[chroman-2,4′-piperidin]-7-yl)propanoic Acid] | 6.38
24 | C[C@H](C(=O)O)[C@H](c1ccc2c(c1)OC1(CC2)CCC(Nc2cc(C(F)(F)F)ccc2C(F)(F)F)CC1)C1CC1 (single isomer, unassigned) [Example 64] | 7.55
25 | C[C@H](C(=O)O)[C@H](c1ccc2c(c1)OC1(CCCN([C@@H](C)c3cc(C(F)(F)F)ccc3C(F)(F)F)CC1)CC2)C1CC1 (single isomer, unassigned) [Example 52, (2S,3R)-3-((S or R)-1-((S)-1-(2,5-bis (trifluoromethyl)phenyl)ethyl)spiro[azepane-4,2′-chroman]-7′-yl)-3-cyclopropyl-2-methylpropanoic acid] | 8.57
26 | C[C@H](C(=O)O)[C@H](c1ccc2c(c1)OC1(CC2)CCN(Cc2cc(C#N)ccc2C(F)(F)F)CC1)C1CC1 [Example 60, (2S,3R)-3-(1′-(5-cyano-2-(trifluoromethyl)benzyl)spiro[chroman-2,4′-piperidin]-7-yl)-3-cyclopropyl-2-methylpropanoic Acid] | 7.76
27 | C[C@H](C(=O)O)[C@H](c1ccc2c(c1)OC1(CC2)CCN(c2cccnc2C(F)(F)F)CC1)C1CC1 [Example 22, sodium (2S,3R)-3-cyclopropyl-2-methyl-3-(1′-(2-(trifluoromethyl)pyridin-3-yl)spiro[chroman-2,4′-piperidin]-7-yl)propanoate] | 7.42
